Calls of active or inactive are those of the source. No cut-off for these calls is given here.
Key:
Type in all cases: cell-based
[1] = target: T1, Transient receptor potential cation channel subfamily A member 1 (Rattus norvegicus, UniProt Q6RI86); assay: Agonist activity at rat TRPA1 transfected in HEK293 cells assessed as increase in intracellular Ca2+ concentration by Fluo4-AM dye based assay
[2] = target: T1, Transient receptor potential cation channel subfamily A member 1; assay: Antagonist activity at rat TRPA1 transfected in HEK293 cells assessed as desensitization by measuring inhibition of AITC induced increase in intracellular Ca2+ concentration preincubated for 5 mins followed by AITC stimulation by Fluo4-AM dye based assay
[3] = target: Transient receptor potential cation channel subfamily A member 1 (Rattus norvegicus) (UniProt Q6RI86); assay: Agonist activity at rat TRPA1 transfected in HEK293 cells assessed as increase in intracellular Ca2+ concentration by measuring efficacy by Fluo4-AM dye based assay relative to AITC
[4] = target: Transient receptor potential cation channel subfamily M member 8 (Rattus norvegicus, UniProt Q8R455); assay: Antagonist activity at rat TRPM8 transfected in HEK293 cells assessed as inhibition of icilin induced increase in intracellular Ca2+ concentration preincubated for 5 mins followed by icilin stimulation by Fluo4-AM dye based assay
[5] = target: Transient receptor potential cation channel subfamily V member 1 (Homo sapiens) (UniProt Q8NER1); assay: Modulation of human TRPV1 transfected in HEK293 cells
Transient receptor potential cation channel subfamily V member 1 (Homo sapiens), sequence (Q8NER1 whole entry): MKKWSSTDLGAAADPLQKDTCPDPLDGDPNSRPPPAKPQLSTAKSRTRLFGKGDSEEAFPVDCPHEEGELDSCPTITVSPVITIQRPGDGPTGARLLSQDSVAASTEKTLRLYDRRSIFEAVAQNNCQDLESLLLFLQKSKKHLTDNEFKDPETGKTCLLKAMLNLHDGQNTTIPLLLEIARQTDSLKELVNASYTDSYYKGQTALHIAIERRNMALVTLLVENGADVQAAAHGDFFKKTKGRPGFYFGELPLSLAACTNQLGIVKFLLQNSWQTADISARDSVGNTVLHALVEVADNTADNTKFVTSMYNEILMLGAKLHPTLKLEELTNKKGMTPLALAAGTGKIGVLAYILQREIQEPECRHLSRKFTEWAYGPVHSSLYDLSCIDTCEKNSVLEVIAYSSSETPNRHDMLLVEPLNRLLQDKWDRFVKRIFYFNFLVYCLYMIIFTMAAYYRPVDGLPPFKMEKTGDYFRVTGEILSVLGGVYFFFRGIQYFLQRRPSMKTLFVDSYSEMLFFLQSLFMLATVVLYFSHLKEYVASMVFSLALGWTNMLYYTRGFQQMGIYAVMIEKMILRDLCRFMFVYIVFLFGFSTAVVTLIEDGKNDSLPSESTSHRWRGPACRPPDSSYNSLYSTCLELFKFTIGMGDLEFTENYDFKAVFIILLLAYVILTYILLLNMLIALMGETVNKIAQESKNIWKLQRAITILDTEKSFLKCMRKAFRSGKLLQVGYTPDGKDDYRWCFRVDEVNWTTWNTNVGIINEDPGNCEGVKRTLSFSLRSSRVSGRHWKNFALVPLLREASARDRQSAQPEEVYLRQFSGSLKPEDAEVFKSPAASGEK

T1 sequence (Q6RI86 whole entry): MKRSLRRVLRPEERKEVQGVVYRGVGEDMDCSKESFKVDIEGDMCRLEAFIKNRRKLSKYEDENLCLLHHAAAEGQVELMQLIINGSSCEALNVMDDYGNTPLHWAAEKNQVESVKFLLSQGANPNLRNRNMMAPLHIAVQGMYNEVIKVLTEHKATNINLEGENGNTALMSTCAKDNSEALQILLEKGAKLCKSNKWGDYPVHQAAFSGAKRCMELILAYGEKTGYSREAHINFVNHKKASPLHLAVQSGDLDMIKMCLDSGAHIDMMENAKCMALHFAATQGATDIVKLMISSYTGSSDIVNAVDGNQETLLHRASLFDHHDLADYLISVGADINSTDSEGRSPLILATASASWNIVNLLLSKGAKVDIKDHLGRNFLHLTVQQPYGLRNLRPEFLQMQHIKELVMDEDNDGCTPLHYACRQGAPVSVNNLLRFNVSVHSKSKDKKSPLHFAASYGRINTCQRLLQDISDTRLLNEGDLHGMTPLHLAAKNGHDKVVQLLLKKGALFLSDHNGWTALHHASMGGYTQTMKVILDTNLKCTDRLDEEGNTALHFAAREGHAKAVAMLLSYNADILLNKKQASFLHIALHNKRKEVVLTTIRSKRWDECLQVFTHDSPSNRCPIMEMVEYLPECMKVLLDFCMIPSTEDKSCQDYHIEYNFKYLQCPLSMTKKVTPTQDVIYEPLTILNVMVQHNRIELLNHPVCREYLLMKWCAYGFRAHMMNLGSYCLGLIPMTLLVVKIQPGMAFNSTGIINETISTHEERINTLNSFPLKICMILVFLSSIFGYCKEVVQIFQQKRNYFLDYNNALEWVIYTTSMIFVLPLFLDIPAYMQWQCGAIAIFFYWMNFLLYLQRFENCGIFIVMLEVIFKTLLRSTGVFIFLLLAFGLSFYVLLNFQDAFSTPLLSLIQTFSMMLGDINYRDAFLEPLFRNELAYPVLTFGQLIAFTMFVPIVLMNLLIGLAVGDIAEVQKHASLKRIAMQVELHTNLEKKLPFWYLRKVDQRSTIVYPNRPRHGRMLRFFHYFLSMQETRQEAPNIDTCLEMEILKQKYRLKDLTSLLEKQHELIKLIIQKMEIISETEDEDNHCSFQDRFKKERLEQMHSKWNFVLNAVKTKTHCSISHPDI
Transient receptor potential cation channel subfamily A member 1 (Rattus norvegicus), sequence (Q6RI86 whole entry): as above
Transient receptor potential cation channel subfamily M member 8, sequence (Q8R455 whole entry): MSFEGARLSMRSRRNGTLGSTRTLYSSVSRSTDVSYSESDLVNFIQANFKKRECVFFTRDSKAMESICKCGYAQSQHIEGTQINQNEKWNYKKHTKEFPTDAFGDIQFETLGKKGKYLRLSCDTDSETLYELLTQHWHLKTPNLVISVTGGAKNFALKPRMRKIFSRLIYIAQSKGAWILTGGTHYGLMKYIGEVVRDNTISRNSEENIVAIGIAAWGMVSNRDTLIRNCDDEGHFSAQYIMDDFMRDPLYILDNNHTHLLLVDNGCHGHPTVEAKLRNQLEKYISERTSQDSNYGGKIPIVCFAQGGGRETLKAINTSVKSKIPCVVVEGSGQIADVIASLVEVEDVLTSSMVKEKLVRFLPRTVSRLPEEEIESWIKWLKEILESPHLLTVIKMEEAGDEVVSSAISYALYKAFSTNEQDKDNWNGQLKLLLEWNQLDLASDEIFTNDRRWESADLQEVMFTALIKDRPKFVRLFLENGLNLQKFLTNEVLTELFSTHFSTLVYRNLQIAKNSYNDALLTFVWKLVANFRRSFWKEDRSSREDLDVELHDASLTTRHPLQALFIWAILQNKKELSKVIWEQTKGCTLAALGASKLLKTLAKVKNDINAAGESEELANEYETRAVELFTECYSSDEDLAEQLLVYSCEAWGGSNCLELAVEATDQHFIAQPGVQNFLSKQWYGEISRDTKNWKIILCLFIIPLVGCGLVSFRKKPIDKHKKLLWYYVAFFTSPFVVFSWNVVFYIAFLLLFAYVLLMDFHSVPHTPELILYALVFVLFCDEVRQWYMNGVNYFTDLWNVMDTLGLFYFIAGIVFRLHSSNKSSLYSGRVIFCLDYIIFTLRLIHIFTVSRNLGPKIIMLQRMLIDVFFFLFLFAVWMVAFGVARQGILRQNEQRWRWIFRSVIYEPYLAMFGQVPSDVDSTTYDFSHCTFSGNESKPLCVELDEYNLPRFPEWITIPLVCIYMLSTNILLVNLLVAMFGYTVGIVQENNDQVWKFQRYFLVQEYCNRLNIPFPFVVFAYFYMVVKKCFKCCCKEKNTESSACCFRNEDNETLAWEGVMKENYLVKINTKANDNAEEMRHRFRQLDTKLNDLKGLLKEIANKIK

For C=C(C)[C@H](CCC(C)=O)[C@@H]1c2c(cc(CCCCC)c(C(=O)O)c2O)O[C@@H]1O, the EC50 [1] was 8.8 µM, the IC50 [2] was 19.2 µM and the Efficacy ([3]; filed as agonist) was 85.7%. For the same compound, the IC50 [4] was 8 µM.
Work on CCCCCc1cc(O)c(C/C=C(\C)CCC=C(C)C)c(O)c1C(=O)O [CANNABIGEROLIC ACID] yielded an EC50 [1] of 8.4 µM, an IC50 [2] of 7.14 µM and an Efficacy ([3]; filed as agonist) of 183%. For the same compound, the IC50 [4] was 1.31 µM.
For C=C(C)C(O)CC/C(C)=C/Cc1c(O)cc(CCCCC)c(C(=O)O)c1O (stereo not drawn), the EC50 [1] was 12.1 µM, the IC50 [2] was 37.3 µM and the Efficacy ([3]; filed as agonist) was 96.1%. For the same compound, the IC50 [4] was 10.4 µM.
With CCCCCC1=CC(=O)C(C/C=C(\C)CCC=C(C)C)=C(O)C1=O the Activity [5] was “inactive”, the EC50 [1] was 7.8 µM and the IC50 [2] was 8.4 µM. The Efficacy ([3]; filed as agonist) was 134% and the IC50 [4] was 3 µM.
For C=C(C)C(O)CC/C(C)=C/Cc1c(O)cc(CCCCC)cc1O (racemic), the Activity [5] was “inactive”, the EC50 [1] was 1 µM and the IC50 [2] was 7.9 µM. The Efficacy ([3]; filed as agonist) was 75.3% and the IC50 [4] was 0.8 µM.
With C=C(C)C(O)CC/C(C)=C\Cc1c(O)cc(CCCCC)c(C(=O)O)c1O (stereo not drawn) the Activity [5] was “inactive”, the EC50 [1] was 6.9 µM and the IC50 [2] was 13.9 µM. For the same compound, the Efficacy ([3]; filed as agonist) was 100% and the IC50 [4] was 4 µM.
In the case of C=C(C)[C@H](CCC(C)=O)[C@@H]1c2c(cc(CCCCC)c(C(=O)O)c2O)O[C@H]1O, the EC50 [1] is reported as 6.6 µM, the IC50 [2] is reported as 17.9 µM and the Efficacy ([3]; filed as agonist) is reported as 91.5%. For the same compound, the IC50 [4] was 23.9 µM.
Compound C=C(C)[C@@H](O)CC/C(C)=C/Cc1c(O)cc(CCCCC)c(C(=O)O)c1O has an EC50 [1] of 15 µM, an IC50 [2] of over 50 µM and an Efficacy [3] of 31%. For the same compound, the IC50 [4] was 33 µM.
Work on CCCCCc1cc(O)c(C/C=C(\C)CCC(=O)O)c(O)c1C(=O)O yielded an EC50 [1] of 28.3 µM, an IC50 [2] of over 50 µM and an Efficacy ([3]; filed as agonist) of 40.4%. It also gave an IC50 [4] of 29.5 µM.
CCCCCc1cc(O)c(C/C=C(\C)CCC(O)C(C)(C)O)c(O)c1C(=O)O (stereo not drawn) was tested, and the EC50 [1] was 10.3 µM, the IC50 [2] was 25.1 µM and the Efficacy ([3]; filed as agonist) was 84.1%. The IC50 [4] was 17.3 µM.
For C=C(C)[C@H](O)CC/C(C)=C/Cc1c(O)cc(CCCCC)c(C(=O)O)c1O, the EC50 [1] was 8.5 µM, the IC50 [2] was over 50 µM and the Efficacy ([3]; filed as agonist) was 68.5%. The IC50 [4] was 5.2 µM.
For CCCCCc1cc(O)c(C/C=C(\C)CCC=C(C)C)c(O)c1, the Efficacy ([3]; filed as agonist) was 99.9%.

Reference: ChEMBL document CHEMBL5385925, “Phytochemical Characterization and TRPA1/TRPM8 Modulation Profile of the Cannabigerol-Rich Cannabis sativa L. Chemotype IV” (J Nat Prod, 2024)
